Laboratory results taken from US8507506B2, “Theophylline derivative inhibits osteoporosis” (Kaohsiung Medical University, priority 2011, dated 2013).
Marks after values point to notes of the source that are not given here.

Legend:
[1] = test system: MMP-2 enzyme activity of RAW264.7 cells; experiment: Gelatin zymography, enzyme activity of MMP-2 induced by RANKL; format: cell-based; conditions: 10 μM, RANKL 24 hours, FIG. 20
Experimental: KMUP-1 influences there major up-stream signal transduction pathways which are related to RANK/RANKL. Western blot is used to estimate the amount of matrix metalloproteinase (MMP)-2 and MMP-9 which are related to the dissolution of osteoclast-like cells, and the enzyme activity of MMP-2 and MMP-9 are estimated via Gelatin Zymography. […] After 24 hours reaction, the reaction fluid was centrifuged (13,000 rpm, 4° C., 20 minutes), and then the supernatant was stored in −80° C. • b) 10% gel preparation. 10 mg gelatin was added by 1 ml ddH2O and then was heated in water bath until the solution was clear. • c) Concentrations of the proteins were examined by Bio-Red DC Protein Assay. After knowing the concentrations, the proteins were diluted to specific concentrations by adding ddH2O. One forth volume of the diluted proteins of sample buffer was added into the diluted proteins. After shaking, the diluted proteins could be added into wells of the gel. Subsequently, 1× running buffer was added with the gel, and then the gel was run at 100 V for 10 minutes until the proteins were driven to the intersection between a loading gel and a running gel. Then, the voltage was swopped to 200 V for 60 minutes. • d) After electrophoresis, the loading gel was discarded, and the left gel was washed by TritonX-100 buffer for 30 minutes in room temperature twice. […]

[2] = test system: MIA-induced knee arthritis in Wistar male rats; experiment: Monosodium iodoacetate (MIA) induced knee arthritis rat model; format: in vivo
[3] = test system: IL-10 secretion by RAW264.7 cells; experiment: ELISA, amount of IL-10; format: cell-based; conditions: RAW264.7, ELISA, increasing dose, FIG. 7(B)
Experimental: Under RANKL stimulation, mononuclear RAW264.7 cells can secrete pro-inflammatory cytokines such as TNF-α, IL-1, IL-6, etc. ELISA is used to measure that KMUP-1 influences RANKL to induce the secretion of pro-inflammatory cytokines. […] 10^5 cells were plated per well in 24-well plates. […] After 24 hours reaction, the reaction fluid was centrifuged (13,000 rpm, 4° C., 20 minutes), and then the supernatant was tasted by ELISA kit (R&D system and eBioscience™) to detect the amount of TNF-α, IL-1β, IL-6, and IL-10. The experimental process is followed with the instructions of the kit.

[4] = test system: Cathepsin K mRNA in RAW264.7 cells; experiment: RT-PCR, RANKL-induced mRNA expression of Cathepsin K; format: cell-based; conditions: for RANKL-induced mRNA expression level of Cathepsin K: RAW264.7 cells, 24 hours, CTL 100%, mean ± SEM
Text: The culture medium was discarded. […] [table] f) Running • A.

[5] = test system: IκBα in cytoplasm of RAW264.7 cells; experiment: Western blot, IκBα phosphorylation and hydrolysis induced by RANKL; format: cell-based; conditions: KMUP-1 in advance 24 hours, RANKL 30 minutes, FIG. 8(A)
Experimental: IκBα which originally binds with NF-κB to inhibit its activity in cytoplasm is stimulated by RANKL to be phosphorylized and be hydrolyzed after separating from NF-κB. Then, the free NF-κB transfers into a cell nucleus to play a role as a transcription factor. According to the experimental result, compared with the control group, in the group induced by RANKL for 30 minutes, the IκBα in the cytoplasm is obviously phosphorylized and hydrolyzed. […] According to the result, KMUP-1 can inhibit NF-κB activation induced by RANKL. Nuclear proteins were extracted according to the instructions of NE-PER kit. 2.5×10^6 cells were plated per well in 24-well plates. […] Subsequently, the cells were added by 5.5 μ[…] and shaken for 5 seconds and then put on ice for 1 minute. After that, the cells were shaken again for 5 seconds and centrifuged (10,000 rpm, 4° C., 5 minutes). Cytoplasm and Nuclei could be separated by this process, and the supernatant was cytoplasmic proteins, and the pallet was nuclei. The supernatant was stored in an eppendorf in -80° C. b) Extraction of Nuclear Proteins The nuclear pallet was added by 500 μl PBS and centrifuged (10,000 rpm, 4° C., 5 minutes), and the supernatant was discarded. The pallet could be washed by this process and prevented contamination. […]

In the case of Cn1c(=O)c2c(ncn2CCN2CCN(c3ccccc3Cl)CC2)n(C)c1=O [KMUP-1, 7-[2-[4-(2-Chlorophenyl)piperazin-1-yl]ethyl] theophylline], the “enzyme activity of MMP-2 induced by RANKL” value [1] was “can reduce the enzyme activity of MMP-2 and MMP-9”, the “holes and defects of cartilage tissues (H&E slices)” value (shortened to “holes and defects”) ([2]; oral 1 mg/kg) was “the holes and defects from the damages of the MIA still exist” and the “inflammatory cell infiltrations (H&E slices)” value ([2]; oral 1 mg/kg) was “there are still many inflammatory cell infiltrations”. For the same compound, the “holes and defects” value ([2]; oral 2.5 mg/kg) was “become much better”, the “inflammatory cell infiltrations (H&E slices)” value ([2]; oral 2.5 mg/kg) was “the inflammatory cell infiltrations become less” and the “damages of articular cartilage caused by MIA (gross appearance)” value ([2]; oral 2.5 mg/kg and 5 mg/kg, one week before and one week after MIA) was “can reduce the damages caused by the MIA”. The “holes and defects” value ([2]; oral 5 mg/kg) was “close to the recovery condition of the sham group”, the “inflammatory cell infiltrations (H&E slices)” value ([2]; oral 5 mg/kg) was “there are still some inflammatory cell infiltrations” and the “mast cell infiltrations (toluidine blue slices)” value ([2]; oral 1, 2.5, 5 mg/kg) was “the mast cell infiltrations present a trend of reducing according to the higher dose”. For the same compound, the “amount of anti-inflammatory cytokine IL-10” value [3] was “can raise the amount of anti-inflammatory cytokines, IL-10”, the “effect on mRNA expression of Cathepsin K induced by RANKL (in words)” value ([4]; 10 ng/ml RANKL, summary of Table 1) was “not obviously inhibits” and the “RANKL-induced mRNA expression level of Cathepsin K” value (shortened to “RANKL-induced mRNA expression level”) ([4]; RANKL 10 ng/ml + KMUP-1 1 μM) was 304 ± 7.8%. The “RANKL-induced mRNA expression level” value ([4]; RANKL 10 ng/ml + KMUP-1 2.5 μM) was 305 ± 5.9%, the “RANKL-induced mRNA expression level” value ([4]; RANKL 10 ng/ml + KMUP-1 5 μM) was 312 ± 6.2%^ and the “RANKL-induced mRNA expression level” value ([4]; RANKL 10 ng/ml + KMUP-1 7.5 μM) was 321.5 ± 10.2% ^. For the same compound, the “RANKL-induced mRNA expression level” value ([4]; RANKL 10 ng/ml + KMUP-1 10 μM) was 245 ± 8.5% ^b and the “phosphorylation and hydrolysis of IκBα in cytoplasm induced by RANKL” value [5] was “can inhibit the effect of RANKL”.
